Results published in patent EP4603105A1, “PHARMACEUTICAL COMPOSITION CONTAINING CYCLIC COMPOUND HAVING SELECTIVE KRAS INHIBITORY EFFECT AGAINST HRAS AND NRAS” (CHUGAI SEIYAKU KABUSHIKI KAISHA, priority 2022, dated 2024).
Like-named read-outs stand apart in the source and are kept apart here.

Columns and labels:
[1] = tested on: human lung cancer strain NCI-H441; assay: NCI-H441 cell proliferation inhibitory activity (CellTiter-Glo, 4 days); type: cell-based; details: read-out: NCl-H441 IC50
How it was run: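 Readout: […] after the ATP-based reagent. Compound: serial dilutions in dimethyl sulfoxide.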

[2] = target: GDP-bound KRAS wild-type protein (Homo sapiens, UniProt P01116); assay: Binding to KRAS by surface plasmon resonance (SPR), dissociation constant KD
How it was run: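 Compound binding is evaluated by SPR single-cycle kinetics, with concentrations added intermittently from low to high for 75 s each. Target surfaces carry GDP-loaded biotinylated Avi-RAS at about 100–300 RU, regenerated after each cycle; temperature 30°C. A 1:1 binding model gives KD.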

HRAS wild-type protein = HRAS wild-type protein (Homo sapiens, UniProt P01112); assay: Binding to HRAS by surface plasmon resonance (SPR), KD and KD ratio to KRAS
How it was run: (§1)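 GDP-bound biotin-Avi RAS captured at ~100–300 RU, 30°C, pH 7.4 HBS containing 10 µM GDP, 10 mM MgCl2, 1 mM DTT, 0.01% Tween 20 and 4% DMSO. KD by 1:1 fitting.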

[3] = target: GDP-bound NRAS wild-type protein (Homo sapiens, UniProt P01111); assay: Binding to NRAS by surface plasmon resonance (SPR), KD and KD ratio to KRAS
How it was run: as §1

[4] = ratio of KD for HRAS wild-type protein to KD for KRAS
[5] = ratio of KD for GDP-bound NRAS wild-type protein to KD for KRAS
[6] = 50% proliferation inhibitory concentration, four days
[7] = Single Cycle Kinetics, 1:1 binding model
[8] = ratio of KD with respect to HRAS wild-type protein to KD with respect to KRAS
[9] = ratio of KD with respect to GDP-bound NRAS wild-type protein to KD with respect to KRAS

Chain of GDP-bound NRAS wild-type protein (P01111 whole entry): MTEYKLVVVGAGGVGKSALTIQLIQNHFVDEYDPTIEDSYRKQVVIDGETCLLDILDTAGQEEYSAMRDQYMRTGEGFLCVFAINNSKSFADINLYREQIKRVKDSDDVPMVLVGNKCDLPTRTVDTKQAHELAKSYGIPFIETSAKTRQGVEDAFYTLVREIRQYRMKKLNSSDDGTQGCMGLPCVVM
Chain of HRAS wild-type protein (P01112 whole entry): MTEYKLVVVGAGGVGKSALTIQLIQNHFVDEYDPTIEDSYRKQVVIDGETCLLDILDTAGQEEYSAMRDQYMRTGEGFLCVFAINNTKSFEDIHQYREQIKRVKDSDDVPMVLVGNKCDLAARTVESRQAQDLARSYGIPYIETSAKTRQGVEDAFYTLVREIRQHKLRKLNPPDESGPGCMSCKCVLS
Chain of GDP-bound KRAS wild-type protein (P01116 1-188 isoform P01116-2): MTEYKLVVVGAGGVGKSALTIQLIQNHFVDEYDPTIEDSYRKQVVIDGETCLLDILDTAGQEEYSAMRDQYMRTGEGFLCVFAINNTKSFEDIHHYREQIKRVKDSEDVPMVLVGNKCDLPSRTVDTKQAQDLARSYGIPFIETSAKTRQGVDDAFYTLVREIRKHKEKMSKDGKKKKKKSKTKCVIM

IC50 ([1]; NCI-H441 cells, 4 days) [nM]	Kd ([2]; Single Cycle Kinetics) [nM]	Kd ([2]; 1:1 binding model) [nM]	IC50 [1, 6] [nM]	Kd [2, 7] [nM]	SMILES	HRAS /KRAS (HRAS wild-type protein; [4])	NRAS /KRAS [3, 5]	HRAS /KRAS (HRAS wild-type protein; [8])	NRAS /KRAS [3, 9]
25.4	2.4				CCC[C@H]1C(=O)N[C@@H](C2CCCC2)C(=O)N(C)CC(=O)N(C)[C@H]2C/C=C\CCN(C2=O)[C@@H](Cc2ccc(C(F)(F)F)cc2)C(=O)N(C)CC(=O)N[C@@H](CCc2cc(F)c(C(F)(F)F)c(F)c2)C(=O)N2CC3(CC3)C[C@H]2C(=O)N(C)C2(CCC2)C(=O)N(C)[C@@H]([C@@H](C)CC)C(=O)N(C)[C@H](C(=O)N(C)C)CC(=O)N1C [PP3307]	A (a compound having 10 or more and less than 20 is denoted as A)	AA (a compound having 20 or more is denoted as AA)		
7.5	0.26				CCC[C@H]1C(=O)N[C@@H]([C@@H](C)CC)C(=O)N2CCC[C@H]2C(=O)N(C)[C@H]2C/C=C\CCN(C2=O)[C@@H](Cc2ccc(C(F)(F)F)cc2)C(=O)N(C)CC(=O)N[C@@H](CCc2cc(F)c(C(F)(F)F)c(F)c2)C(=O)N2CC[C@H](OC)[C@H]2C(=O)N(C)C2(CCC2)C(=O)N(C)[C@@H](C2CCCC2)C(=O)N(C)[C@H](C(=O)N(C)C)CC(=O)N1C [PP3283]	A (a compound having 10 or more and less than 20 is denoted as A)	A (a compound having 10 or more and less than 20 is denoted as A)		
8.9		0.061			CCO[C@@H]1C[C@H]2C(=O)NC3(CC(C)(C)C3)C(=O)N(C)[C@@H](C3CCCC3)C(=O)N(C)[C@H](C(=O)N(C)CC)CC(=O)N(C)[C@@H](COC)C(=O)N[C@@H]([C@@H](C)CC)C(=O)N(C)CC(=O)N(C)[C@H]3C/C=C\CCN(C3=O)[C@@H](Cc3ccc(C)cc3)C(=O)N(C)CC(=O)N[C@@H](CCc3ccc(C(F)(F)F)c(Cl)c3)C(=O)N2C1 [PP2507]	A (a compound having 10 or more and less than 20 is denoted as A)	AA (a compound having 20 or more is denoted as AA)		
13.2		0.25			CCC[C@H]1C(=O)N[C@@H]([C@@H](C)CC)C(=O)N(C)CC(=O)N(C)[C@H]2C/C=C\CCN(C2=O)[C@@H](Cc2ccc(C)cc2)C(=O)N(C)CC(=O)N[C@@H](CCc2ccc(Cl)c(Cl)c2)C(=O)N2C[C@H](OCC)C[C@H]2C(=O)NC2(CC(C)(C)C2)C(=O)N(C)[C@@H](CC(C)(C)C)C(=O)N(C)[C@H](C(=O)N(C)C)CC(=O)N1C [PP2714]	A (a compound having 10 or more and less than 20 is denoted as A)	A (a compound having 10 or more and less than 20 is denoted as A)		
8.3		0.12			CCOC[C@H]1C(=O)N[C@@H]([C@@H](C)CC)C(=O)N(C)CC(=O)N(C)[C@H]2C/C=C\CCN(C2=O)[C@@H](Cc2ccc(C)cc2)C(=O)N(C)CC(=O)N[C@@H](CCc2ccc(C(F)(F)F)c(Cl)c2)C(=O)N2C[C@@H](C)C[C@H]2C(=O)NC2(CC(C)(C)C2)C(=O)N(C)[C@@H](C2CCCC2)C(=O)N(C)[C@H](C(=O)N(C)C)CC(=O)N1C [PP2394]	B (a compound having 3 or more and less than 10 is denoted as B)	A (a compound having 10 or more and less than 20 is denoted as A)		
126		1.6			CCCO[C@H](C)[C@@H]1NC(=O)[C@H](COCC)N(C)C(=O)C[C@@H](C(=O)N(C)CC)N(C)C(=O)[C@H](C2CCCC2)N(C)C(=O)C2(CC(C)(C)C2)NC(=O)[C@@H]2C[C@@H](OCC)CN2C(=O)[C@H](CCc2cc(F)c(C(F)(F)F)c(F)c2)NC(=O)CN(C)C(=O)[C@H](Cc2ccc(C)cc2)N2CC/C=C\C[C@@H](C2=O)N(C)C(=O)[C@@H]2CCCN2C1=O [PP2436]	A (a compound having 10 or more and less than 20 is denoted as A)	A (a compound having 10 or more and less than 20 is denoted as A)		
480	1.9				CCO[C@@H]1C[C@H]2C(=O)NC3(CC(C)(C)C3)C(=O)N(C)[C@@H](C3CCCC3)C(=O)N(C)[C@H](C(=O)N(C)CC)CC(=O)N(C)[C@@H]([C@H](C)OC)C(=O)N[C@@H]([C@@H](C)CC)C(=O)N3CCC[C@H]3C(=O)N(C)[C@H]3C/C=C\CCN(C3=O)[C@@H](Cc3ccc(C)cc3)C(=O)N(C)CC(=O)N[C@@H](CCc3ccc(C(F)(F)F)c(Cl)c3)C(=O)N2C1 [PP3165]	A (a compound having 10 or more and less than 20 is denoted as A)	A (a compound having 10 or more and less than 20 is denoted as A)		
10.6		0.13			CC[C@H](C)[C@@H]1NC(=O)[C@H](COC)N(C)C(=O)C[C@@H](C(=O)N(C)CC)N(C)C(=O)[C@H](C2CCCC2)N(C)C(=O)C2(CC(C)(C)C2)NC(=O)[C@@H]2C[C@H](C)CN2C(=O)[C@H](CCc2ccc(C(F)(F)F)c(Cl)c2)NC(=O)CN(C)C(=O)[C@H](Cc2ccc(C)cc2)N2CC/C=C\C[C@@H](C2=O)N(C)C(=O)CN(C)C1=O [PP2506]	A (a compound having 10 or more and less than 20 is denoted as A)	A (a compound having 10 or more and less than 20 is denoted as A)		
5.3	0.22				CCC[C@H]1C(=O)N[C@@H]([C@@H](C)CC)C(=O)N2CCC[C@H]2C(=O)N(C)[C@H]2C/C=C\CCN(C2=O)[C@@H](Cc2ccc(C)cc2)C(=O)N(C)CC(=O)N[C@@H](CCc2ccc(C(F)(F)F)c(OC)c2)C(=O)N2CC[C@H](OC)[C@H]2C(=O)N(C)C2(CCC2)C(=O)N(C)[C@@H](C2CCCC2)C(=O)N(C)[C@H](C(=O)N(C)C)CC(=O)N1C [PP3247]	B (a compound having 3 or more and less than 10 is denoted as B)	A (a compound having 10 or more and less than 20 is denoted as A)		

Second part, the compound before the results:

SMILES	IC50 ([1]; NCI-H441 cells, 4 days) [nM]	Kd ([2]; Single Cycle Kinetics) [nM]	Kd ([2]; 1:1 binding model) [nM]	IC50 [1, 6] [nM]	Kd [2, 7] [nM]	HRAS /KRAS (HRAS wild-type protein; [4])	NRAS /KRAS [3, 5]	HRAS /KRAS (HRAS wild-type protein; [8])	NRAS /KRAS [3, 9]
CCC[C@H]1C(=O)N[C@@H]([C@@H](C)CC)C(=O)N(C2CC2)CC(=O)N(C)[C@H]2C/C=C\CCN(C2=O)[C@@H](Cc2ccc(C)cc2)C(=O)N(C)CC(=O)N[C@@H](CCc2ccc(C(F)(F)F)c(OC)c2)C(=O)N2C[C@@H](C)C[C@H]2C(=O)N(C)C2(CCC2)C(=O)N(C)[C@@H](C2CCCC2)C(=O)N(C)[C@H](C(=O)N(C)C)CC(=O)N1C [PP2366]	4.5		0.048			A (a compound having 10 or more and less than 20 is denoted as A)	A (a compound having 10 or more and less than 20 is denoted as A)		
CC[C@H](C)[C@@H]1NC(=O)[C@H](CC)N(C)C(=O)C[C@@H](C(=O)N(C)C)N(C)C(=O)[C@H](C2CCCC2)N(C)C(=O)C2(CCC2)NC(=O)[C@H](C)NC(=O)[C@H](CCc2cc(F)c(C(F)(F)F)c(F)c2)NC(=O)CN(C)C(=O)[C@H](Cc2ccc(C(F)(F)F)cc2)N2CC/C=C\C[C@@H](C2=O)N(C)C(=O)CN(C)C1=O [PP1140]				1780	0.15			A (a compound having 10 or more and less than 20 is denoted as A)	A (a compound having 10 or more and less than 20 is denoted as A)
CC[C@H](C)[C@@H]1NC(=O)[C@H](CC)N(C)C(=O)C[C@@H](C(=O)N(C)C)N(C)C(=O)[C@H](C2CCCC2)N(C)C(=O)C2(CCC2)NC(=O)[C@@H]2CCN2C(=O)[C@H](CCc2cc(F)c(C(F)(F)F)c(F)c2)NC(=O)CN(C)C(=O)[C@H](Cc2ccc(C(F)(F)F)cc2)N2CC/C=C\C[C@@H](C2=O)N(C)C(=O)CN(C)C1=O [PP1139]				297	0.43			A (a compound having 10 or more and less than 20 is denoted as A)	A (a compound having 10 or more and less than 20 is denoted as A)
CCO[C@@H]1C[C@H]2C(=O)NC3(CCC3)C(=O)N(C)[C@@H](C3CCCC3)C(=O)N(C)[C@H](C(=O)N(C)C)CC(=O)N(C)[C@@H](CC3CC3)C(=O)N[C@@H]([C@@H](C)CC)C(=O)N(C)CC(=O)N(C)[C@H]3C/C=C\CCN(C3=O)[C@@H](Cc3ccc(C(F)(F)F)cc3)C(=O)N(C)CC(=O)N[C@@H](CCc3ccc(Cl)c(Cl)c3)C(=O)N2C1 [PP1253]				22.2	0.2			A (a compound having 10 or more and less than 20 is denoted as A)	A (a compound having 10 or more and less than 20 is denoted as A)
CCCOC[C@H]1C(=O)N[C@@H]([C@@H](C)CC)C(=O)N(C2CC2)CC(=O)N(C)[C@H]2C/C=C\CCN(C2=O)[C@@H](Cc2ccc(C)cc2)C(=O)N(C)CC(=O)N[C@@H](CCc2ccc(C(F)(F)F)c(OC)c2)C(=O)N2C[C@@H](C)C[C@H]2C(=O)N(C)C2(CCC2)C(=O)N(C)[C@@H](C2CCCC2)C(=O)N(C)[C@H](C(=O)N(C)C)CC(=O)N1C [PP2367]	2.1		0.075			B (a compound having 3 or more and less than 10 is denoted as B)	A (a compound having 10 or more and less than 20 is denoted as A)		
CC[C@H](C)[C@@H]1NC(=O)[C@H](COC)N(C)C(=O)C[C@@H](C(=O)N(C)C)N(C)C(=O)[C@H](C2CCCC2)N(C)C(=O)C2(CC(C)(C)C2)NC(=O)[C@@H]2C[C@H](C)CN2C(=O)[C@H](CCc2ccc(C(F)(F)F)c(OC)c2)NC(=O)CN(C)C(=O)[C@H](Cc2ccc(C)cc2)N2CC/C=C\C[C@@H](C2=O)N(C)C(=O)[C@@H]2C[C@H](OC)CN2C1=O [PP2390]	96.7		0.28			B (a compound having 3 or more and less than 10 is denoted as B)	A (a compound having 10 or more and less than 20 is denoted as A)		
